Data from patent publication US20230263915A1, “RADIOLABELED COMPOUNDS” (King's College London, priority 2020, published 2023).

Key:
left ventricle function = assay: Echocardiography (cardiac ultrasound) in Doxorubicin minipump rats; type: in vivo
Description: In order to assess cardiac function all rats were subjected to a cardiac ultrasound (Vevo 770™, VisualSonics) one day prior to osmotic pump implantation and a second ultrasound one day prior to PET/CT imaging. Rats were anaesthetized with 2% isoflurane in 100% oxygen and maintained at 37° C. via a homoeothermic platform and rectal thermometer. High-resolution parasternal left ventricle (LV) long axis M-mode and B-mode images were obtained using a RMV710B transducer. Images were analysed offline using Vevo Software to determine LV function.
(§1) Male Wistar rats (280-300 g) were used in all experiments. Subcutaneous 7-day osmotic pumps (Alzet), containing either Doxorubicin (Cambridge Bioscience, 30 mg/kg cumulative dose) or vehicle (sterile 0.9% NaCl), were inserted into rats under 2% isoflurane in 100% oxygen.

[1] = PET imaging study in healthy C57BL/6J mice; type: in vivo
Description: Wild type C57BL/6J mice (male, 26±2 g) were injected intravenously via the tail vein with [^18F]FM074 (1.2±1.1 MBq) in PBS containing sodium ascorbate (0.01 mg/mL). The animals were sacrificed either 3 min post-injection or after a 60 min PET (n=3/group). Organs and tissues of interest were harvested, weighed and the radioactivity measured in a gamma counter. Organ uptake was calculated as percentage injected dose per gram of tissue mass (% ID/g). Data are reported as mean±SD.
The radiotracer is excreted by both renal and hepatobilliary routes in less than 1 hour (FIG. 5).

[2] = system: oxidative stress in heart (left ventricle); assay: PET/CT imaging in rat model of Doxorubicin-induced cardiotoxicity; type: in vivo, rats
Description: Wistar rats were randomly divided into two groups and were subjected to the implantation of an Alzet Osmotic minipump containing either Doxorubicin (30 mg/kg) in saline (n=6) or saline only (n=4) as control. The minipump releases the drug at a constant rate over seven days, after which PET/CT imaging was performed.
as §1
Doxorubicin (30 mg/kg) or only vehicle (saline) was delivered to the animals using the osmotic minipump for seven days, after which PET/CT imaging was performed.
Animals were placed in a warm box at 37° C. before being transferred to an anaesthesia induction box under an 02 flow rate of 1 L/min with isofluorane levels of 5%. The anaesthetised rats were transferred to the PET bed and kept under anaesthesia with an O2 flow rate of 1 L/min with isofluorane levels of 2.5%. The radiotracer (0.5-2.2 MBq, 200-600 μL in maximum 5% EtOH in PBS) was injected intravenously via a cannula inserted into a tail vein. The injection start time coincided with the start of the PET acquisition in order to obtain dynamic tracer uptake information. The PET scans were acquired for 30 min, followed by a CT scan, after which the animals were sacrificed and organs harvested as for the biodistribution protocol. The PET data was analysed using VivoQuant.
Subsequently, both groups were subjected to 30 min PET/CT scans with chest cavity in the field of view on day 7 of the treatment. (FIG. 8) The PET images were analysed into three segments: from 0 to 3 min, 3 to 10 min, and 10 to 30 min post-injection of ^18F-FM074.

[3] = Stability in rat serum at 37° C. determined by radioHPLC; type: in vitro ADME; details: 1 hour
Description: (§2) Stability tests monitored by HPLC indicate that ^18F-FM074 is stable in both pure ethanol and 1% ethanol in PBS in the presence of ascorbic acid (0.01 mg/mL) for 4 h (not tested for longer). When incubated in rat serum at 37° C., 90% of ^18F-FM074 was intact in 1 hour (FIG. 3(A)). The stability of ^18F-FM108 in PBS was also determined and it was stable in 30 minutes (FIG. 3(B)).

[4] = Biodistribution in healthy Wistar rats; type: in vivo; details: for uptake by major organs (brain, heart, lung, spleen): i.v., 1, 5 and 30 min post-injection
Description: Male Wistar rats (290-355 g) were placed in a warm box at 37° C. before being transferred to an anaesthesia induction box under an O2 flow rate of 1 L/min with isofluorane levels of 5%. The anaesthetised rat was transferred to an anaesthesia mask with an O2 flow rate of 1 L/min with isofluorane levels of 2.5%. The radiotracer (0.5-2.2 MBq, 200-600 μL in maximum 5% EtOH in PBS) was injected intravenously via a cannula inserted into a tail vein. The animals were sacrificed by cervical dislocation at 1, 5, and 30 min post-injection (n=3/group). The heart was immediately removed and rinsed with saline to washout the blood. Organs of interest as well as blood and urine were collected and the radioactivity measured in a gamma counter.

[5] = Chemoselectivity study: oxidation by superoxide (KO2), radioHPLC; details: for oxidation by superoxide: 1 mg/mL KO2 in solution, 5 min, room temperature; for oxidation by superoxide in the presence of ascorbic acid: KO2 plus ascorbic acid 1 mg/mL
Description: (§3) The different oxidants were prepared in PBS (900 μL). The ^18F-labelled compound was formulated as 0.5-2 MBq in 100 μL ethanol and added to the oxidant PBS solution. The final reaction mixture contains the ^18F-labelled compound (0.5-2 MBq) in the presence of 100 μM oxidant in PBS with 10% ethanol (final volume 1000 μL). The reaction was kept at room temperature for 5 min, after which it was injected into the HPLC for analysis. • Superoxide (O2^−): The ^18F-labelled compound in ethanol (100 μL) was added to PBS (900 μL) and the resulting solution was then added to a vial containing solid KO2 (1 mg), to make up a reaction mixture with 10 mM O2^−. • Hydrogen peroxide (H202): H2O2 (10 mM stock solution, 10 μL) was diluted in PBS (890 μL) followed by addition of the ^18F-labelled compound in ethanol (100 μL), to a final concentration of 100 μM. • Hydroxyl radical (⋅OH): hydroxyl radicals were generated in situ by reacting hydrogen peroxide (H202, 100 μM) with iron II ([…]). FeSO2.7H2O (5 mM stock, 200 μL) was diluted in PBS (690 μL) and H2O2 (10 mM stock, 10 μL) was added, followed by the ^18F-labelled compound in 100 μL ethanol. • Iron (II) sulfate heptahydrate (Fe^2+) (control): FeSO2.7H2O (5 mM stock, 200 μL) was diluted to a final concentration of 1000 μM in PBS (700 μL), and the ^18F-labelled compound in 100 μL ethanol was added after. • tert-butyl hydroperoxide (TBHP): TBHP (10 mM stock, 10 μL) was diluted in PBS (890 μL) followed by addition of the ^18F-labelled compound in ethanol, to a final concentration of 100 μM. • Tert-butoxy radical (t-BuO⋅): t-butoxy radicals were generated in situ by reacting tert-butyl hydroperoxide (TBHP, 100 μM) with Fe^2+ (1000 μM). FeSO2.7H2O (5 mM stock, 200 μL) was diluted in PBS (690 μL) and TBHP (10 mM stock, 1 μL) was added, followed by the ^18F-labelled compound in ethanol. • Peroxynitrite (ONOO^−): peroxynitrite was generated in situ by spontaneous decomposition of 3-morpholinosydnomine (SIN-1) in solution. SIN-1 (5 mM stock, 1 μL) was diluted in PBS (989 μL) containing the ^18F-labelled compound in ethanol (10 μL), to give a final concentration of 50 μM ONOO^− in solution. • Nitric oxide (NO): NO was generated in situ by the NO-donor drug diethylamine NONOate (DEA/NO). A 33 mM stock solution of DEA/NO in 10 mM NaOH was used. 1 μL was diluted in PBS (990 μL) containing the ^18F-labelled compound in ethanol (10 μL), to give a final concentration of 33 μM DEA/NO in solution. The reaction was allowed to take place for 32 min at room temperature (˜20° C.) to allow DEA/NO to decompose into diethylamine and nitric oxide radical (NO) at a concentration of 50 μM, before HPLC analysis.

[6] = LogD measurement, shake-flask partition between 1-octanol and PBS; type: physicochemical; details: 1-octanol / PBS pH 7.4
Description: The lipophilicity of ^18F-FM074 and ^18F-FM074-Ox was determined by measuring their logD values using a variation of the conventional shake-flask method, namely a conventional partition method between 1-octanol and phosphate buffered saline (PBS), pH 7.4. The 1-octanol was saturated with PBS before use. The radiotracer (1 μL) in ethanol was added to a mixture of PBS (200 μL) and 1-octanol (200 μL) in a 1.5 mL Eppendorf vial (n =6). The vial was sealed and shaken, then centrifuged at 3000 g for 10 min. A 100 μL aliquot from each layer was drawn was added to separate tubes. The radioactivity content of each fraction was measured in a gamma counter. The LogDoct/PBS as calculated as follows: log [(cpm in the 1-octanol layer-cpm 1-octanol blank)/(cpm in the PBS layer-cpm pbs blank)].

[7] = Stability tests monitored by HPLC in ethanol / PBS; type: physicochemical
Description: as §2

[8] = system: xanthine oxidase/xanthine system; assay: Oxidation by superoxide generated by the xanthine oxidase/xanthine system; type: biochemical; details: xanthine (1 mM) and catalase in PBS, 37° C., 5 min
[9] = Chemoselectivity study: oxidation by other ROS, radioHPLC; details: in vitro; for reactivity to other biologically relevant ROS: qualitative
Description: as §3, with “SIN-1 (5 mM stock, 1 μL) was diluted in PBS (989 μL) containing the ^18F-labelled compound in ethanol (10 μL), to give a final concentration of 50 μM ONOO^− in solution. • Nitric oxide (NO): NO was generated in situ by the NO-donor drug diethylamine NONOate (DEA/NO). A 33 mM stock solution of DEA/NO in 10 mM NaOH was used. 1 μL was diluted in PBS (990 μL) containing the ^18F-labelled compound in ethanol (10 μL), to give a final concentration of 33 μM DEA/NO in solution. The reaction was allowed to take place for 32 min at room temperature (˜20° C.) to allow DEA/NO to decompose into diethylamine and nitric oxide radical (NO) at a concentration of 50 μM, before HPLC analysis.” left out

[10] = healthy C57BL/6 mice, i.v., PET

## COc1cccc2c1C(=O)c1c(O)c3c(c(O)c1C2=O)C[C@@](O)(C(=O)CO)C[C@@H]3O[C@H]1C[C@H](N)[C@H](O)[C@H](C)O1 [Doxorubicin]
Left ventricle function; 30 mg/kg via 7-day osmotic minipump, day 6 compared to day 0
  reduction of left ventricle ejection fraction vs baseline: 15%
Left ventricle function; ultrasound, FIG. 7
  left ventricle ejection fraction, Doxorubicin treated vs control groups: no significant difference

## [18F]CCCN1c2ccccc2SC1c1ccccc1 (stereo not drawn) [^18F-FM074, [^18F]3-(3-fluoropropyl)-2-phenyl-2,3-dihydrobenzo[d]thiazole]
[1]; healthy C57BL/6 mice, heart and brain, PET
  non-specific background retention: no non-specific background retention
[1]; [10]
  blood clearance: fast blood clearance
  time to excretion by renal and hepatobilliary routes: less than 1 hour
  tissue penetration: excellent tissue penetration
  uptake by heart and brain: rapidly taken up
[1]; mice, after 1 hour
  bone uptake (defluorination in vivo): minimal
[2]; 3-10 min post-injection, day 7 of Doxorubicin 30 mg/kg minipump
  ratio of standard uptake values LV to blood, Doxorubicin-treated vs control rats: significantly (p<0.05) higher
[2]; PET, Doxorubicin model rats, no significant difference between treated and control
  liver uptake: high uptake
[2]; ex vivo, after 30 min scan
  heart uptake ex vivo after the PET/CT scan, treated vs control: no significant difference
[2]; time-activity curves, FIG. 10
  washout rate from the LV, Doxorubicin treated vs control: two-fold slower
[3]
  intact tracer in rat serum: 90%
[4]; 1 min post-injection
  clearance from the blood pool: fast clearance
[4]; hepatic and renal metabolism, excreted to small intestine and urine
  time to clearance from major organs: under 30 min
[4]
  uptake by major organs (brain, heart, lung, spleen): rapid initial uptake
[4]; within 30 min
  uptake in bone and muscle: little uptake
[5]
  oxidation by superoxide: 58±8%
  oxidation by superoxide in the presence of ascorbic acid: 31±5%
[6]
  logD: 1.00±0.08
[7]; 1% ethanol in PBS in the presence of ascorbic acid (0.01 mg/mL), for 4 h, HPLC
  stability in 1% ethanol in PBS: stable
[7]; pure ethanol, for 4 h (not tested for longer), HPLC
  stability in pure ethanol: stable
[8]
  oxidised tracer observed in radioHPLC chromatogram: 53%
[9]
  reactivity to other biologically relevant ROS: little or no reactivity
[9]; ⋅OH, H2O2, ⋅NO, ONOO^−
  oxidation by other endogenous ROS: less than 10%

## [18F]CCC[n+]1c(-c2ccccc2)sc2ccccc21.[Cl-] [^18F-FM074-Ox, [^18F]-(3-fluoropropyl)-2-phenylbenzo[d]thiazol-3-ium chloride]
[4]; excreted through the urine
  clearance route: quickly cleared by the kidneys
[4]
  uptake by major organs (brain, heart, lung, spleen): significantly reduced uptake
[6]
  logD: −1.00±0.04

## COc1ccc(C2Sc3ccccc3N2CCC[18F])cc1 (stereo not drawn) [^18F-FM108, [^18F]3-(3-fluoropropyl)-2-(4-methoxyphenyl)-2,3-dihydrobenzo[d]thiazole]
[5]
  oxidation by superoxide: 54±4%
  oxidation by superoxide in the presence of ascorbic acid: 38%
[6]
  logD: 0.83±0.12
[7]; PBS, 30 minutes (FIG. 3(B))
  stability in PBS: stable
[9]
  reactivity to other biologically relevant ROS: little or no reactivity
